Test results from publication PMC9865645, “The Impact of N^ε-Acryloyllysine Piperazides on the Conformational Dynamics of Transglutaminase 2” (International Journal of Molecular Sciences, 2023).

Target: T1, hTGase 2 (Homo sapiens, UniProt P21980)
T1 construct: purchased Zedira (Darmstadt, Germany) T022, lot 0716a
T1 sequence (P21980 1-687): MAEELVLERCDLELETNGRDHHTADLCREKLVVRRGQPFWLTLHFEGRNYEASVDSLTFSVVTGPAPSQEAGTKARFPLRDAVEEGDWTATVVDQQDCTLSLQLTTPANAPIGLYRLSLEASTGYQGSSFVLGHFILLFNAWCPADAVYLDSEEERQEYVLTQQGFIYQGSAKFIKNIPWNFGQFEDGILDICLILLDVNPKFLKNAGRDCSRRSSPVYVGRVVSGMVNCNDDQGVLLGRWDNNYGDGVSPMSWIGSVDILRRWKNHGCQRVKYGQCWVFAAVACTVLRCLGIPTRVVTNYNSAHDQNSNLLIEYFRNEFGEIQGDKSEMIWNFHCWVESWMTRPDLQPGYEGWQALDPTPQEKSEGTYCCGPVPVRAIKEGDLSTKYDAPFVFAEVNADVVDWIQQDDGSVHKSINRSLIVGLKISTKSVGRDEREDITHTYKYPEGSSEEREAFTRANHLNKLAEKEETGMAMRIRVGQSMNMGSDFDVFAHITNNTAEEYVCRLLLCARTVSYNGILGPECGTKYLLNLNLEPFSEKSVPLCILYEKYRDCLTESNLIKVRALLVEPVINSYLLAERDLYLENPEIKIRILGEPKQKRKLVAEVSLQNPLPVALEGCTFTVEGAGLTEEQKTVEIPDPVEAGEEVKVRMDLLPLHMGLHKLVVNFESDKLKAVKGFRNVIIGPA
Experiment: switchSENSE dynamic mode: upward motion (relative inverse slope, friction) of hTGase 2-dsDNA lever
Conditions: GTPγS 20 nM or Ca^2+ 1 mM; non-directed and His-tag-directed labeling
Protocol: Prior to the measurement of the switching kinetics of the differently conjugated hTGase 2, a complementary ssDNA without the enzyme (500 nM) was hybridized to the single-stranded capture strands on the chip electrodes to obtain the reference kinetics of the dsDNA lever. In addition, to determine the impact of CaCl2 and DMSO on the movement of the bare dsDNA lever, and thus on reference kinetics, its switching behavior was investigated in TE40, TE40 + 1 mM CaCl2, TE40 + 1 mM CaCl2 + 1% DMSO or TE40 + 1 mM CaCl2 + 0.1% DMSO.
Then, the dehybridization of the reference lever occurred during a regeneration step followed by the hybridization with an ssDNA-hTGase 2 conjugate (500 nM). Thereafter, the switching kinetics was recorded. […]
The impact on the hydrodynamic drag of the hTGase 2-functionalized lever was investigated under identical conditions for the three irreversible inhibitors 1–3: At first, the switching kinetics of the dsDNA lever and the hTGase 2-dsDNA conjugates were recorded. Secondly, the switching kinetics of the hTGase 2-dsDNA conjugates during and after Ca^2+ exposure were recorded using TE40 + 1 mM CaCl2 or TE40, respectively. […] In this process, the hydrodynamic drag was analyzed during the exposure to 10 µM inhibitor (for 6 min) dissolved in TE40 + 1 mM CaCl2 + 0.1% DMSO and to TE40 afterward. […]

relative inverse slope of hTGase 2-dsDNA lever versus pure buffer without effector: significantly smaller
SMILES: Nc1nc2c(ncn2[C@@H]2O[C@H](COP(=O)(O)OP(=O)(O)OP(O)(O)=S)[C@@H](O)[C@H]2O)c(=O)[nH]1 [GTPγS]
